The source of these data is US20120270875A1, “PYRIMIDINE AMIDE COMPOUNDS” (priority 2011, published 2012).

The target of one assay is sLFA-1/ICAM-1 (Homo sapiens, UniProt P05107+P20701, DEL701-769). Nature of the assay: sLFA-1/ICAM-1 ELISA. The format is binding. To be noted: sLFA-1 coated plates, 5dICAM-Fc binding, ELISA; read-out: LFA-1/ICAM (IC50). Here is the method: sLFA-1/ICAM-1 ELISA and Mac-1/ICAM-1 ELISA
Plates were coated with either 50 μl/well of 2.0 ug/ml solution of sLFA-1 or Mac-1 receptor in divalent cation buffer (1 mM MnCl2, 0.14M NaCl, 20 mM HEPES pH 7.2) at 4° C. overnight. Two hundred fifty μl of blocking buffer (1% BSA in divalent cation buffer) was added to each well 1 hour at 37° C. Plates were washed 3 times with wash buffer (TBS/0.05% Tween-20/1 mM MnCl2). The compound to be tested was solubilized in DMSO. A series of 1:3 dilutions were performed to achieve a concentration range of 0.45 nM-3 uM. Fifty μl of binding buffer (0.5% BSA in divalent cation buffer)/1% DMSO and 50 μl of the solutions to be tested were added to the appropriate wells and incubated for 1 hour. Fifty μl of 5dICAM-Fc (27 ng/ml) was added to the appropriate wells and 50 μl binding buffer was added to non-specific binding wells and incubated for 2 hours and washed. One hundred μl of 1:4000 HRP-goat anti-huIgG was added to each well and incubated for 1 hour and washed. One hundred μl of 1:1 TMB solution was added to each well and developed for 20 min at room temperature. Color development was stopped by adding 100 μl H3PO4 to each well. Absorbance was measured at 450 nm.
On the technique in general: In an ELISA, binding on a coated surface is turned into a signal by an enzyme label.

For assay [1], the system named is PBMC's from two healthy donors. In words: Human Mixed Lymphocyte Reaction (hMLR). The format is cell-based. The following applies: 3H-thymidine incorporation, read-out: human MLR (IC50). On the procedure:
Human Mixed Lymphocyte Reaction (hMLR)
PBMC's were isolated from two healthy donors by Ficoll gradient. Cells were resuspended with 4 mL assay media and counted with a Coulter Counter. Both cell populations were resuspended to 1×10^7/mL. Stimulator cells were irradiated for 2.5 min (2000 RAD) in cesium irradiator. 5×10^5 cells were added to duplicate wells of the plate. Included were quadruplicate wells receiving responder cells alone and stimulator cells alone. The compound to be tested was solubilized in DMSO. A series of 1:3 dilutions were performed to achieve a concentration range of 0.45 nM-3 uM. One hundred μl of the solutions to be tested were added to the cell plate (100 μl of 2% DMSO/media added to control wells). Plates were then incubated for 2.5 days at 37° C. with 5% CO2. Plates were pulsed with 50 μl/well 3H-thymidine at 0.5 uCi/well then incubated for 6 hours at 37° C. with 5% CO2. Cells were harvested using Cell Harvester (TomTec) and counted on TopCount (Perkin Elmer).
A general note: Incorporation of labelled thymidine or its analogues reports DNA synthesis.

pIC50: −log10 of the molar value.

Sequence of sLFA-1/ICAM-1 (P20701 26-1090 limits assumed, stated change not applied): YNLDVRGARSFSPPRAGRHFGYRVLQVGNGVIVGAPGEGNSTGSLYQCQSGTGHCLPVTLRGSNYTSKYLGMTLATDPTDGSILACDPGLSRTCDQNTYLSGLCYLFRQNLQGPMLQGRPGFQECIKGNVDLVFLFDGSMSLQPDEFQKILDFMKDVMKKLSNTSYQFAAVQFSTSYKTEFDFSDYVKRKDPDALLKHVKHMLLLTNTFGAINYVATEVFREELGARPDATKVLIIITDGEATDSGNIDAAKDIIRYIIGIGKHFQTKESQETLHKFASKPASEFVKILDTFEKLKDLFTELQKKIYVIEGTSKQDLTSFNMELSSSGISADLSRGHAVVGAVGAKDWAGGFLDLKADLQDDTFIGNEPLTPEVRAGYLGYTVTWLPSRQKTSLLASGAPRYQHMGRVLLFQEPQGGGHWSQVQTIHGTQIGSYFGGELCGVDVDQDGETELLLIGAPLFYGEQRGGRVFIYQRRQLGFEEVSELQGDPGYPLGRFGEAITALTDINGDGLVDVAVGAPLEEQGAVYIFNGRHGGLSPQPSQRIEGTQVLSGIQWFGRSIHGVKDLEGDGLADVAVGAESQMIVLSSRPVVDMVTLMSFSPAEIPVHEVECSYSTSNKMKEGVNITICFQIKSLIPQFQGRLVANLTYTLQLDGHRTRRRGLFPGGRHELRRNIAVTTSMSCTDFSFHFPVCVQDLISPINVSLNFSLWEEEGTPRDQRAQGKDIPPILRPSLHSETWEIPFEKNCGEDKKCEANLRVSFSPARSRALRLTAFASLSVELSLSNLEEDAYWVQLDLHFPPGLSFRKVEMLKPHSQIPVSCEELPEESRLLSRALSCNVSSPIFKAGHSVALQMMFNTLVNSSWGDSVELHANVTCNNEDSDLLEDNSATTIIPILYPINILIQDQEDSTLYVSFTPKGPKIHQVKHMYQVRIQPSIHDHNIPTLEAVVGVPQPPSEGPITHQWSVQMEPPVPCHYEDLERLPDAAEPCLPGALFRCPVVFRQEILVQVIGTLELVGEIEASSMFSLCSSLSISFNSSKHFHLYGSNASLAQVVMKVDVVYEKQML
Sequence of sLFA-1/ICAM-1 (P05107 23-700 limits assumed, stated change not applied): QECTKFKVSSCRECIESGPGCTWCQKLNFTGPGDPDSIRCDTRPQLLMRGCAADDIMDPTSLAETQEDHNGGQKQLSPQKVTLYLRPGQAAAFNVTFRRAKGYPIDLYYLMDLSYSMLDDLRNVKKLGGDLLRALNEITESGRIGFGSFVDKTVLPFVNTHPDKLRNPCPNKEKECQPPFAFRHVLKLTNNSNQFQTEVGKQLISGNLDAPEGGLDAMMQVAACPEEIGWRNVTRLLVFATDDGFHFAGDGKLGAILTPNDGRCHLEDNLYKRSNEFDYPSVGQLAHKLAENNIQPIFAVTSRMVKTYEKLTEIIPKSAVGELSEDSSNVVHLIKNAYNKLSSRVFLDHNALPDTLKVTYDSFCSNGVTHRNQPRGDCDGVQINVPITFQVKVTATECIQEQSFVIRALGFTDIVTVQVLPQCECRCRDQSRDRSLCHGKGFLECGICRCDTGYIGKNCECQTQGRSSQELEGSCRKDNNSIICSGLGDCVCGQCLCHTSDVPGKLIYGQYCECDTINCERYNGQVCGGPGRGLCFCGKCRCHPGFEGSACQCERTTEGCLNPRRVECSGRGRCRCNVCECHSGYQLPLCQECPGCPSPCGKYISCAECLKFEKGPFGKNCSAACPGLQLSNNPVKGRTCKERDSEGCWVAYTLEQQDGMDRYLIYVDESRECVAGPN

With `Cc1nc(NCCCc2cccc(O)c2)ncc1C(=O)N[C@@H](CNC(=O)c1cccs1)C(=O)O` [Example 76, (S)-2-({2-[3-(3-Hydroxy-phenyl)-propylamino]-4-methyl-pyrimidine-5-carbonyl}-amino)-3-[(thiophene-2-carbonyl)-amino]-propionic acid], the pIC50 on sLFA-1/ICAM-1 was 8.05; in assay [1] it was 5.75. The corresponding values for `Cc1nc(NC2CCc3cccc(O)c3C2)nc(C)c1C(=O)N[C@@H](CNC(=O)c1cnccn1)C(=O)O` (stereo partly drawn) [Example 117, (S)-2-{[2-(8-Hydroxy-1,2,3,4-tetrahydro-naphthalen-2-ylamino)-4,6-dimethyl-pyrimidine-5-carbonyl]-amino}-3-[(pyrazine-2-carbonyl)-amino]-propionic acid] are 6.76 and 5.29.

As to `Cc1cnc(C(=O)NC[C@H](NC(=O)c2c(C)nc(NCCCc3cccc(O)c3)nc2C)C(=O)O)cn1` [Example 101, (S)-2-({2-[3-(3-Hydroxy-phenyl)-propylamino]-4,6-dimethyl-pyrimidine-5-carbonyl}-amino)-3-[(5-methyl-pyrazine-2-carbonyl)-amino]-propionic acid], the pIC50 at sLFA-1/ICAM-1 was 7.28; in assay [1], 5.20. Take `Cc1ccc(C(=O)NC[C@H](NC(=O)c2c(C)nc(NCCCc3cccc(O)c3)nc2C)C(=O)O)s1` [Example 87, (S)-2-({2-[3-(3-hydroxy-phenyl)-propylamino]-4,6-dimethyl-pyrimidine-5-carbonyl}-amino)-3-[(5-methyl-thiophene-2-carbonyl)-amino]-propionic acid]: the pIC50 on sLFA-1/ICAM-1 was 8.40; in assay [1], 5.84. In the case of `CCc1nc(NCCCc2cccc(O)c2)nc(C)c1C(=O)N[C@@H](CNC(=O)c1cccs1)C(=O)O` [Example 78, (S)-2-({4-Ethyl-2-[3-(3-hydroxy-phenyl)-propylamino]-6-methyl-pyrimidine-5-carbonyl}-amino)-3-[(thiophene-2-carbonyl)-amino]-propionic acid], the figures for the pIC50 (on sLFA-1/ICAM-1; in assay [1]) were 7.70 and 6.12, respectively.

With `Cc1nc(NCCCc2cccc(O)c2)nc(C)c1C(=O)N[C@@H](CNC(=O)c1cscn1)C(=O)O` [Example 46, (S)-2-({2-[3-(3-hydroxy-phenyl)-propylamino]-4,6-dimethyl-pyrimidine-5-carbonyl}-amino)-3-[(thiazole-4-carbonyl)-amino]-propionic acid], the pIC50 was 7.59 on sLFA-1/ICAM-1 and 6.12 in assay [1].

Consider `Cc1nc(NCCCc2cccc(O)c2)nc(C)c1C(=O)N[C@@H](CNC(=O)N(C)C)C(=O)O` [Example 113, (S)-3-(3,3-Dimethyl-ureido)-2-({2-[3-(3-Hydroxy-phenyl)-propylamino]-4,6-dimethyl-pyrimidine-5-carbonyl}-amino)-propionic acid], for which the pIC50 on sLFA-1/ICAM-1 was 7.13; in assay [1], 5.38. As to `Cc1nc(NC/C=C/c2cccc(O)c2)nc(C)c1C(=O)N[C@@H](CNC(=O)c1cccs1)C(=O)O` [Example 74, (S)-2-({2-[(E)-3-(3-Hydroxy-phenyl)-allylamino]-4,6-dimethyl-pyrimidine-5-carbonyl}-amino)-3-[(thiophene-2-carbonyl)-amino]-propionic acid], the pIC50 at sLFA-1/ICAM-1 was 6.82; in assay [1] it was 5.69.

As to `Cc1nc(NCCCc2cccc(O)c2)nc(C)c1C(=O)N[C@@H](CNC(=O)c1cnccn1)C(=O)O` [Example 93, (S)-2-({2-[3-(3-hydroxy-phenyl)-propylamino]-4,6-dimethyl-pyrimidine-5-carbonyl}-amino)-3-[(pyrazine-2-carbonyl)-amino]-propionic acid], the pIC50 on sLFA-1/ICAM-1 is 7.54; in assay [1], 5.64. Consider `Cc1nc(NC/C=C\c2cccc(O)c2)nc(C)c1C(=O)N[C@@H](CNC(=O)c1cccs1)C(=O)O` [Example 73, (S)-2-({2-[(Z)-3-(3-Hydroxy-phenyl)-allylamino]-4,6-dimethyl-pyrimidine-5-carbonyl}-amino)-3-[(thiophene-2-carbonyl)-amino]-propionic acid], for which the results for the pIC50 (on sLFA-1/ICAM-1; in assay [1]) were 7.25 and 6.09, respectively. For `Cc1nc(NCCCc2cc(O)ccc2F)nc(C)c1C(=O)N[C@@H](CNC(=O)c1cccs1)C(=O)O` [Example 71, (S)-2-({2-[3-(2-Fluoro-5-hydroxy-phenyl)-propylamino]-4,6-dimethyl-pyrimidine-5-carbonyl}-amino)-3-[(thiophene-2-carbonyl)-amino]-propionic acid], the pIC50 on sLFA-1/ICAM-1 is 6.65. In the case of `Cc1nc(NCCCc2cccc(O)c2)nc(C)c1C(=O)N[C@@H](CNC(=O)OCc1ccccc1)C(=O)O` [Example 111, (S)-3-Benzyloxycarbonylamino-2-({2-[3-(3-Hydroxy-phenyl)-propylamino]-4,6-dimethyl-pyrimidine-5-carbonyl}-amino)-propionic acid], the pIC50 at sLFA-1/ICAM-1 is 7.25; in assay [1], 5.31.

With `Cc1nc(NCCCc2ccc(O)cc2)nc(C)c1C(=O)N[C@@H](CNC(=O)c1cccs1)C(=O)O` [Example 69, (S)-2-({2-[3-(4-Hydroxy-phenyl)-propylamino]-4,6-dimethyl-pyrimidine-5-carbonyl}-amino)-3-[(thiophene-2-carbonyl)-amino]-propionic acid], the pIC50 at sLFA-1/ICAM-1 is 7.55.

Regarding `O=C(NC[C@H](NC(=O)c1cnc(NCCCc2cccc(O)c2)nc1C(F)(F)F)C(=O)O)c1cccs1` [Example 77, (S)-2-({2-[3-(3-Hydroxy-phenyl)-propylamino]-4-trifluoromethyl-pyrimidine-5-carbonyl}-amino)-3-[(thiophene-2-carbonyl)-amino]-propionic acid], at sLFA-1/ICAM-1, the pIC50 is 6.42. Turning to `Cc1nc(NCc2ccccc2-c2ccccc2O)nc(C)c1C(=O)N[C@@H](CNC(=O)c1cccs1)C(=O)O` [Example 14, (S)-2-({2-[(2′-hydroxy-biphenyl-2-ylmethyl)-amino]-4,6-dimethyl-pyrimidine-5-carbonyl}-amino)-3-[(thiophene-2-carbonyl)-amino]-propionic acid], on sLFA-1/ICAM-1, the pIC50 is 6.30.

Turning to `Cc1ccc(O)cc1CCCNc1nc(C)c(C(=O)N[C@@H](CNC(=O)c2cccs2)C(=O)O)c(C)n1` [Example 72, (S)-2-({2-[3-(2-Methyl-5-hydroxy-phenyl)-propylamino]-4,6-dimethyl-pyrimidine-5-carbonyl}-amino)-3-[(thiophene-2-carbonyl)-amino]-propionic acid], at sLFA-1/ICAM-1, the pIC50 is 6.80. As to `Cc1cccc(C(=O)NC[C@H](NC(=O)c2c(C)nc(NCCCc3cccc(O)c3)nc2C)C(=O)O)c1` [Example 97, (S)-2-({2-[3-(3-hydroxy-phenyl)-propylamino]-4,6-dimethyl-pyrimidine-5-carbonyl}-amino)-3-(3-methyl-benzoylamino)-propionic acid], the pIC50 on sLFA-1/ICAM-1 is 6.75. `O=C(N[C@@H](CNC(=O)c1cccs1)C(=O)O)c1cnc(NCCCc2cccc(O)c2)nc1` [Example 75, (S)-2-({2-[3-(3-Hydroxy-phenyl)-propylamino]-pyrimidine-5-carbonyl}-amino)-3-[(thiophene-2-carbonyl)-amino]-propionic acid]: at sLFA-1/ICAM-1, the pIC50 is 7.19.

Turning to `Cc1nc(NCCCc2cccc(O)c2)nc(C)c1C(=O)N[C@@H](CNC(=O)N1CCCc2ccccc21)C(=O)O` [Example 115, (S)-3-[(3,4-Dihydro-2H-quinoline-1-carbonyl)-amino]-2-({2-[3-(3-hydroxy-phenyl)-propylamino]-4,6-dimethyl-pyrimidine-5-carbonyl}-amino)-propionic acid], the pIC50 on sLFA-1/ICAM-1 was 6.34.
